Each structure is given as a SMILES string. Structures can show the parent of a compound that is named as a salt.

The values below come from patent publication US9181230B2, “Morpholine compounds and uses thereof” (Hoffmann-La Roche Inc., priority 2013, dated 2015).

Sequence of mouse TAAR1 (Q923Y8 whole entry): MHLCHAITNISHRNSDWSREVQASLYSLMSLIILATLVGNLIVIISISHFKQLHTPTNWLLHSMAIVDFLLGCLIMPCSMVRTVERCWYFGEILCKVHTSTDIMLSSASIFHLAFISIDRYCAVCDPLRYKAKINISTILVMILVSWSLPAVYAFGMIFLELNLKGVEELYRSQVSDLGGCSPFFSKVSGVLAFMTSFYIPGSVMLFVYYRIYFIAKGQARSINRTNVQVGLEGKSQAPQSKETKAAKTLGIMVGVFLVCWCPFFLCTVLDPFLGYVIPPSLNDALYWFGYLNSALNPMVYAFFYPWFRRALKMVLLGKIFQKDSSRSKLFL

The target in the first assay is mouse TAAR1 (Mus musculus (Mouse), UniProt Q923Y8). Briefly: Radioligand binding assay on mouse TAAR1. To be noted: mouse TAAR1, membranes of HEK-293 cells, first value of the cell pair mouse/rat. The method, then:
(§1) For the construction of expression plasmids the coding sequences of human, rat and mouse TAAR 1 were amplified from genomic DNA essentially as described by Lindemann et al.. The Expand High Fidelity PCR System (Roche Diagnostics) was used with 1.5 mM Mg^2+ and purified PCR products were cloned into pCR2.1-TOPO cloning vector (Invitrogen) following the instructions of the manufacturer. PCR products were subcloned into the pIRESneo2 vector (BD Clontech, Palo Alto, Calif.), and expression vectors were sequence verified before introduction in cell lines.
(§2) HEK293 cells (ATCC # CRL-1573) were cultured essentially as described by Lindemann et al. (2005). For the generation of stably transfected cell lines HEK293 cells were transfected with the pIRESneo2 expression plasmids containing the TAAR coding sequences (described above) with Lipofectamine 2000 (Invitrogen) according to the instructions of the manufacturer, and 24 hrs post transfection the culture medium was supplemented with 1 mg/ml G418 (Sigma, Buchs, Switzerland). After a culture period of about 10 d clones were isolated, expanded and tested for responsiveness to trace amines (all compounds purchased from Sigma) with the cAMP Biotrak Enzyme immunoassay (EIA) System (Amersham) following the non-acetylation EIA procedure provided by the manufacturer.
(A) Radioligand Binding Assay on Mouse TAAR1
(§3) Membrane Preparation and Radioligand Binding.
(§4) HEK-293 cells stably expressing mouse TAAR1 were maintained at 37° C. and 5% CO2 in DMEM high glucose medium, containing fetal calf serum (10%, heat inactivated for 30 min at 56° C.), penicillin/streptomycin (1%), and 375 μg/ml geneticin (Gibco). Cells were released from culture flasks using trypsin/EDTA, harvested, washed twice with ice-cold PBS (without Ca^2+ and Mg^2+), pelleted at 1,000 rpm for 5 min at 4° C., frozen and stored at −80° C. Frozen pellets were suspended in 20 ml HEPES-NaOH (20 mM, pH 7.4) containing 10 mM EDTA and homogenized with a Polytron (PT 6000, Kinematica) at 14,000 rpm for 20 s. The homogenate was centrifuged at 48,000×g for 30 min at 4° C. Subsequently, the supernatant was removed and discarded, and the pellet resuspended in 20 ml HEPES-NaOH (20 mM, pH 7.4) containing 0.1 mM EDTA using the Polytron (20 s at 14,000 rpm). This procedure was repeated and the final pellet resuspended in HEPES-NaOH containing 0.1 mM EDTA and homogenized using the Polytron. Typically, aliquots of 2 ml membrane portions were stored at −80° C. With each new membrane batch the dissociation constant (Kd) was determined via a saturation curve. […] Nonspecific binding was defined as the amount of ^3[H]-(S)-4-[(ethyl-phenyl-amino)-methyl]-4,5-dihydro-oxazol-2-ylamine bound in the presence of 10 μM unlabeled ligand. All compounds were tested at a broad range of concentrations (10 pM to 10 μM) in duplicates. […] The 96 deep well plates were incubated for 1 hr at 4° C. Incubations were terminated by rapid filtration through Unifilter-96 plates (Packard Instrument Company) and glass filters GF/C (Perkin Elmer) presoaked for 1 hr in polyethylenimine (0.3%) and washed 3 times with 1 ml of cold binding buffer. After addition of 45 μl of Microscint 40 (PerkinElmer) the Unifilter-96 plate was sealed and after 1 hr the ratioactivity counted using a TopCount Microplate Scintillation Counter (Packard Instrument Company).
Broadly, the Ki is the dissociation constant of the complex between target and ligand, obtained from inhibition or displacement. High values mean a looser hold on the target, low ones a stronger hold on the target. Take `Clc1cc(-c2cc(-c3ccc([C@H]4CNCCO4)cc3)n[nH]2)ccn1` [Example 42, (S)-2-(4-(5-(2-Chloropyridin-4-yl)-1H-pyrazol-3-yl)phenyl)morpholine hydrochloride]: the Ki is 0.0016 µM.

For the molecule `Fc1ccc(-c2cc(-c3ccc([C@H]4CNCCO4)cc3F)n[nH]2)cc1` [Example 40, (S)-2-(3-Fluoro-4-(5-(4-fluorophenyl)-1H-pyrazol-3-yl)phenyl)morpholine hydrochloride], the affinity corresponds to a Ki of 0.0012 µM.

Consider `c1ccc2[nH]c(-c3ccc(C4CNCCO4)cc3)nc2c1` (centres unmarked) [Example 1, 2-(4-(1H-Benzo[d]imidazol-2-yl)phenyl)morpholine hydrochloride], for which affinity was put at a Ki of 0.038 µM.

With `Fc1ccc(-c2cc(-c3ccc([C@@H]4CNCCO4)cc3)n[nH]2)cc1` [Example 31, (R)-2-(4-(5-(4-Fluorophenyl)-1H-pyrazol-3-yl)phenyl)morpholine hydrochloride], the affinity corresponds to a Ki of 0.001 µM.

With `Fc1cc(F)c2nc(-c3ccc([C@H]4CNCCO4)cc3)[nH]c2c1` [Example 11, (S)-2-(4-(4,6-Difluoro-1H-benzo[d]imidazol-2-yl)phenyl)morpholine hydrochloride], the inhibition constant (Ki) stood at 0.009 µM.

Molecule `Brc1cnc2nc(-c3ccc([C@H]4CNCCO4)cc3)[nH]c2c1` [Example 7, (S)-2-(4-(6-bromo-1H-imidazo[4,5-b]pyridin-2-yl)phenyl)morpholine hydrochloride] had a Ki of 0.0089 µM.

As for `Fc1ccc(-c2nc3cc([C@@H]4CNCCO4)ccc3[nH]2)cc1` [Example 44, (R)-2-(2-(4-Fluorophenyl)-1H-benzo[d]imidazol-5-yl)morpholine hydrochloride], the Ki was 0.004 µM.

In turn, `FC(F)(F)c1ccc2c(n1)[nH]c1ccc([C@H]3CNCCO3)cc12` [Example 49, (S)-2-(2-(Trifluoromethyl)-9H-pyrido[2,3-b]indol-6-yl)morpholine hydrochloride] had a Ki of 0.0032 µM.

In the case of `Clc1ccc2nc(-c3ccc(C4CNCCO4)cc3)[nH]c2c1` (centres unmarked) [Example 2, 2-(4-(6-Chloro-1H-benzo[d]imidazol-2-yl)phenyl)morpholine hydrochloride], the Ki came to 0.0032 µM.

`Fc1ccc(-c2nc3cc([C@H]4CNCCO4)ccc3[nH]2)cc1` [Example 43, (S)-2-(2-(4-Fluorophenyl)-1H-benzo[d]imidazol-5-yl)morpholine hydrochloride]: the Ki was determined as 0.0014 µM.

Molecule `N#Cc1ccc(-c2cc(-c3ccc([C@H]4CNCCO4)cc3)n[nH]2)c(F)c1` [Example 33, (S)-3-Fluoro-4-(3-(4-(morpholin-2-yl)phenyl)-1H-pyrazol-5-yl)benzonitrile hydrochloride] came in with a Ki of 0.0016 µM.

As for `Fc1ccc(-c2ncn(-c3ccc([C@H]4CNCCO4)cc3)n2)cc1` [Example 25, (S)-2-(4-(3-(4-Fluorophenyl)-1H-1,2,4-triazol-1-yl)phenyl)morpholine hydrochloride], the Ki is 0.0034 µM.

`Fc1ccc(-c2cn(-c3ccc([C@@H]4CNCCO4)cc3)nn2)cc1` [Example 39, (R)-2-(4-(4-(4-Fluorophenyl)-1H-1,2,3-triazol-1-yl)phenyl)morpholine hydrochloride]: affinity was put at a Ki of 0.001 µM.

`Fc1ccc(-n2cc(-c3ccc([C@H]4CNCCO4)cc3)nn2)cc1` [Example 18, (S)-2-(4-(1-(4-Fluorophenyl)-1H-1,2,3-triazol-4-yl)phenyl)morpholine hydrochloride] registered a Ki of 0.002 µM.

As to `Fc1ccc(-n2cc(-c3ccc([C@@H]4CNCCO4)cc3)nn2)cc1` [Example 35, (R)-2-(4-(1-(4-Fluorophenyl)-1H-1,2,3-triazol-4-yl)phenyl)morpholine hydrochloride], the Ki came out at 0.0017 µM.

`Fc1ccc(-c2cn(-c3ccc([C@H]4CNCCO4)cc3)nn2)cc1` [Example 27, (S)-2-(4-(4-(4-Fluorophenyl)-1H-1,2,3-triazol-1-yl)phenyl)morpholine hydrochloride] yielded a Ki of 0.0004 µM.

`Fc1ccc(-c2cc(-c3ccc([C@@H]4CNCCO4)cc3)n[nH]2)c(F)c1` [Example 14, (R)-2-(4-(5-(2,4-Difluorophenyl)-1H-pyrazol-3-yl)phenyl)morpholine hydrochloride] displayed a Ki of 0.0008 µM.

`Fc1ccc(-c2cc(-c3ccc([C@H]4CNCCO4)cc3)n[nH]2)c(F)c1` [Example 13, (S)-2-(4-(5-(2,4-Difluorophenyl)-1H-pyrazol-3-yl)phenyl)morpholine hydrochloride] registered a Ki of 0.0003 µM.

`Fc1ccc(-c2ncn(-c3ccc([C@@H]4CNCCO4)cc3)n2)cc1` [Example 36, (R)-2-(4-(3-(4-Fluorophenyl)-1H-1,2,4-triazol-1-yl)phenyl)morpholine hydrochloride] returned a Ki of 0.0097 µM.

For the molecule `O=C(Nc1cc(-c2ccc([C@H]3CNCCO3)cc2)n[nH]1)c1ccc(F)cc1` [Example 30, (S)-4-Fluoro-N-(3-(4-(morpholin-2-yl)phenyl)-1H-pyrazol-5-yl)benzamide hydrochloride], the affinity corresponds to a Ki of 0.0022 µM.

The same assay, now with this note: mouse TAAR1, saturation curve, usual value per membrane batch; read-out: dissociation constant (Kd) of the radioligand.
Usually Kd stands for the concentration at which binding is half-saturated. Take `CCN(C[C@H]1COC(N)=N1)c1ccccc1` [^3[H]-(S)-4-[(ethyl-phenyl-amino)-methyl]-4,5-dihydro-oxazol-2-ylamine, reference compound]: the Kd was about 0.7 nM.

In another assay the target is rat TAAR1 (Rattus norvegicus (Rat), UniProt Q923Y9). Kind of assay: Radioligand binding assay on rat TAAR1. To be noted: rat TAAR1, membranes of HEK-293 cells, second value of the cell pair mouse/rat. The method, then: as §1, §2
Sequence of rat TAAR1 (Q923Y9 whole entry): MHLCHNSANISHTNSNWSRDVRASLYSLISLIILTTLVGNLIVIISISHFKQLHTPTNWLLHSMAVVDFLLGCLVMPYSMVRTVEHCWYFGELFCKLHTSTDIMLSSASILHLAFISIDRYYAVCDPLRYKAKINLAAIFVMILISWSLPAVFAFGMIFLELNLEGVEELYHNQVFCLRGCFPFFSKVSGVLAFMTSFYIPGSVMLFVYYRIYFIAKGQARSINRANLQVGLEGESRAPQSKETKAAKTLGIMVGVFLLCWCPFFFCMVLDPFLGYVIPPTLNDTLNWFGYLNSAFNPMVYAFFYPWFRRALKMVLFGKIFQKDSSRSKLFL
(B) Radioligand Binding Assay on Rat TAAR1
as §3
as §4, with “rat” for “mouse”
In the case of `FC(F)(F)c1cc(-c2nc3ccc([C@@H]4CNCCO4)cc3o2)ccn1` [Example 54, (R)-6-(Morpholin-2-yl)-2-(2-(trifluoromethyl)pyridin-4-yl)benzo[d]oxazole hydrochloride], affinity was put at a Ki of 0.448 µM.

For the molecule `Fc1ccc(-c2cc(-c3ccc([C@H]4CNCCO4)cc3F)n[nH]2)cc1` [Example 40, (S)-2-(3-Fluoro-4-(5-(4-fluorophenyl)-1H-pyrazol-3-yl)phenyl)morpholine hydrochloride], the affinity, expressed as Ki, was 0.0155 µM.

Molecule `c1ccc2[nH]c(-c3ccc(C4CNCCO4)cc3)nc2c1` (centres unmarked) [Example 1, 2-(4-(1H-Benzo[d]imidazol-2-yl)phenyl)morpholine hydrochloride] registered a Ki of 0.76 µM.

In turn, `Fc1ccc(-c2cc(-c3ccc([C@@H]4CNCCO4)cc3)n[nH]2)cc1` [Example 31, (R)-2-(4-(5-(4-Fluorophenyl)-1H-pyrazol-3-yl)phenyl)morpholine hydrochloride] had a Ki of 0.0036 µM.

The molecule `Cc1cc2nc(-c3ccc([C@H]4CNCCO4)cc3)[nH]c2cc1C` [Example 16, (S)-2-(4-(5,6-Dimethyl-1H-benzo[d]imidazol-2-yl)phenyl)morpholine hydrochloride] registered a Ki of 1.14 µM.

The molecule `c1cnc2[nH]c3ccc([C@H]4CNCCO4)cc3c2c1` [Example 45, (S)-2-(9H-Pyrido[2,3-b]indol-6-yl)morpholine hydrochloride] returned an inhibition constant Ki of 1 µM.

`FC(F)(F)c1cc(-c2nc3ccc([C@H]4CNCCO4)cc3o2)ccn1` [Example 55, (S)-6-(Morpholin-2-yl)-2-(2-(trifluoromethyl)pyridin-4-yl)benzo[d]oxazole hydrochloride]: the affinity, expressed as Ki, was 0.304 µM.

The assay is the same for the next values; noted with them: rat TAAR1, saturation curve, usual value per membrane batch; read-out: dissociation constant (Kd) of the radioligand.
On to `CCN(C[C@H]1COC(N)=N1)c1ccccc1` [^3[H]-(S)-4-[(ethyl-phenyl-amino)-methyl]-4,5-dihydro-oxazol-2-ylamine, reference compound], for which the Kd was about 2.3 nM.
